Assay results published in publication PMC9779817, “Identification of New Purpuroine Analogues from the Arctic Echinodermata Pteraster militaris That Inhibit FLT3-ITD^+ AML Cell Lines” (International Journal of Molecular Sciences, 2022).
Values after ≈ are worked out from the molar mass of the structure shown.

Columns and labels:
Rhodotrula sp. = test: Antifungal growth inhibition assay; type: cell-based; conditions: positive control
Protocol: (§4) The yeast strains Candida albicans (ATCC 10231) and Rhodotrula sp. and the Aurobasidium pollulans mold, were cultivated on potato dextrose agar with 2% glucose at room temperature. Fungal spores were dissolved in potato dextrose broth (Difco Laboratories, USA) and the cell concentration was determined and adjusted after counting in a Bürker chamber. […] The assay plates were incubated in a moist dark chamber at 37 °C. […] Growth inhibition was determined microscopically after 42 h incubation.

Aurobasidium pollulans = test: Antifungal growth inhibition assay; type: cell-based; conditions: positive control
Protocol: as §4

MV-4-11 cells [1] = test: Apoptosis assay (annexin V/PI staining, flow cytometry); type: cell-based, human; conditions: 26 µM (1 × IC50); 24 h
Protocol: To further investigate the cell death pathway activated by 1, an apoptosis assay was performed and the ability of 1 to induce apoptosis and/or necrosis in MV-4-11 cell line was evaluated by annexin V/PI staining (Figure 5). The cells were divided into 3 different populations: annexin V−/PI− (healthy cells), annexin V+/PI− (apoptotic cells) and annexin V+/PI+ (late apoptotic/necrotic cells). […] However, after 24 h and 48 h of incubation at the highest concentration of compound (104 µM), no increase in apoptotic cells were seen when compared to cells incubated with 52 µM.
MV-4-11 cells were seeded into 24-well plates (Nunclon^TM Delta Surface, Thermo Scientific) at a density of 1 × 10^6 cells/mL supplemented with 26 µM, 52 µM or 104 µM of 1 and incubated for 24 or 48 h at 37 °C an 5% CO2. Apoptotic and necrotic cells were labelled according to manufacturer’s instructions (Alexa Fluor^TM 488 Annexin V/Dead Cell Apoptosis Kit, Invitrogen) and analysed by a CytoFLEX Flow cytometer and CytExpert software (Beckman Coulter).

MDA-MB-468 = test: Viability screening, colorimetric MTS assay; type: cell-based; parameters: key: Active: active compound was defined as ≤50% survival at one of the concentrations; Inactive; conditions: MDA-MB-468, breast cancer; screened at 10 and 50 µM; 72 h
Protocol: (§1) All cell lines were purchased from ATCC (Manassa, VA, USA) except MOLM-13 that was purchased from Leibniz Institute DSMZ (Braunschweig, Germany). Viability screening of compounds 1–3 at 10 and 50µM was performed by a colorimetric MTS assay. The cells were seeded into 96-well microtiter plates (Nunclon^TM Delta Surface, Thermo Scientific, Roskilde, Denmark) in RPMI-1640 supplemented with 10% FBS and 10µg/mL Gentamycin (assay media). The adherent cell lines A2058, HaCat and HT29 were seeded in a density of 2000 cells/well, MRC5 were seeded in a density of 4000 cells/well and SK-BR-3 and MDA-MB-468 were seeded in a density of 5000 cells/well. After incubation for 24 h in 37 °C and 5% CO2 the media was discarded and replaced by samples diluted in assay media, negative control (100% cell survival, 100% assay media) and positive control (0% cell survival, 90% assay media supplemented with 10% DMSO). The suspension cell lines MV-4-11 and MOLT-4 were directly seeded in a density of 10,000 cells/well and MOLM-13 and THP-1 were seeded in a density of 20,000 cells/well in assay media supplemented with sample. All samples were added in triplicates. Cells and samples were incubated for a total of 72 h (HepG2 cells were incubated for 24 h) at 37 °C and 5% CO2. Thereafter, 10% CellTiter 96®AQueous One Solution Reagent (G3581, Promega) containing tetrazolium compound [3-(4,5-dimethylthiazol-2-yl)-5-(3-carboxymethoxyphenyl)-2-(4-sulfophenyl)-2H-tetrazolium] and phenazine ethosulfate were added. After 1 h incubation the absorbances was measured at 485 nm with a DTX 880 and viability was calculated.

HT29 = test: Viability screening, colorimetric MTS assay; type: cell-based; parameters: key: Active: active compound was defined as ≤50% survival at one of the concentrations; Inactive; conditions: HT29, colon cancer; screened at 10 and 50 µM; 72 h
Protocol: as §1

HaCat = test: Viability screening, colorimetric MTS assay; type: cell-based; parameters: key: Active: active compound was defined as ≤50% survival at one of the concentrations; Inactive; conditions: keratinocytes (non-cancerous), screened at 10 and 50 µM, 72 h
Protocol: as §1

SK-BR-3 = test: Viability screening, colorimetric MTS assay; type: cell-based; parameters: key: Active: active compound was defined as ≤50% survival at one of the concentrations; Inactive; conditions: SK-BR-3, breast cancer; screened at 10 and 50 µM; 72 h
Protocol: as §1

MOLT-4 = test: Viability screening, colorimetric MTS assay; type: cell-based; parameters: key: Active: active compound was defined as ≤50% survival at one of the concentrations; Inactive; conditions: MOLT-4, acute lymphoblastic leukemia; screened at 10 and 50 µM; 72 h
Protocol: as §1

THP-1 = test: Viability screening, colorimetric MTS assay; type: cell-based; parameters: key: Active: active compound was defined as ≤50% survival at one of the concentrations; Inactive; conditions: THP-1, acute monocytic leukemia; screened at 10 and 50 µM; 72 h
Protocol: as §1

HepG2 = test: Viability screening, colorimetric MTS assay; type: cell-based; parameters: key: Active: active compound was defined as ≤50% survival at one of the concentrations; Inactive; conditions: HepG2, liver hepatocellular carcinoma; screened at 10 and 50 µM; 24 h
Protocol: as §1

MRC5 = test: Viability screening, colorimetric MTS assay; type: cell-based; parameters: key: Active: active compound was defined as ≤50% survival at one of the concentrations; Inactive; conditions: MRC5, lung fibroblasts (non-cancerous); screened at 10 and 50 µM; 72 h
Protocol: as §1

MV-4-11 = test: Viability screening and IC50 determination, MTS assay; type: cell-based, human; parameters: key to Activity at ≤50 µM: Active: active compound was defined as ≤50% survival at one of the concentrations; Inactive; conditions: for Activity at ≤50 µM: MV-4-11, acute myeloid leukemia, screened at 10 and 50 µM, 72 h
Protocol: as §1

FLT3-ITD mutant = FLT3-ITD mutant (Homo sapiens, UniProt P36888); type: binding; conditions: concentrations tested up to 10 μM
Protocol: (§2) A FRET signal is generated between an Europium-labelled tag, on the FLT3 kinase, and a fluorescent tracer with high binding affinity for the FLT3 active site.
(§3) Anti-GST-Eu-tagged monoclonal antibodies (anti-GST AB) were purchase from Cisbio (PerkinElmer Norge AS, catalogue number 61GSTKLA) and reconstituted in water at a final concentration of 333 nM. White, non-binding, round bottom 384 well microplates (reference number 4513) were purchased from Corning (Corning Inc, Kennebunk, ME, USA). The compounds were serially diluted into DMSO to 12 different concentrations. Each of these compound-containing DMSO solutions was further diluted 33 times in assay buffer A (50 mM HEPES pH 7.5, 10 mM MgCl2, 1 mM ethylene glycol-bis(β-aminoethyl ether)-N,N,N′,N′-tetraacetic acid (EGTA) and 0.01% BRIJ-35) and 5 μL of these solutions were dispensed in triplicates in 384 well plate. […] Fluorescence measurements were made using a EnVision 2104 Multilabel reader, (PerkinElmer, US), excitation wavelength was set to 340 nm and emission was read at both 615 nm (8.5 nm bandwidth) and 665 nm (7.5 nm bandwidth) over […] between excitation and emission measurements.

MOLM-13 = test: Viability screening, colorimetric MTS assay; type: cell-based, human; parameters: key: Active: active compound was defined as ≤50% survival at one of the concentrations; Inactive; conditions: MOLM-13, acute myeloid leukemia; screened at 10 and 50 µM; 72 h
Protocol: as §1

MV-4-11 cells [2] = test: Cell cycle analysis (PI staining, flow cytometry); type: cell-based, human; conditions: 24 h, compared to control
Protocol: MV-4-11 cells were seeded into 24-well plates (Nunclon^TM Delta Surface, Thermo Scientific) in a density of 1 × 10^6 cells/mL supplemented with 26 µM, 52 µM or 104 µM of 1. The cells were incubated for 24 h and thereafter fixed in ice cold 70% EtOH. After washing the cells were stained with FxCycle™ PI/RNase Staining Solution (Invitrogen, MA, USA) according to manufacturer’s instructions. The cells were analysed by a CytoFLEX Flow cytometer (Beckman Coulter, CA, USA) and cell cycle phase determined in CytExpert software (Beckman Coulter).

FLT3 WT = biological target: T1, FLT3 WT (Homo sapiens, UniProt P36888); test: Kinase binding assay (FRET tracer competition); conditions: concentrations tested up to 10 μM
T1 construct: purchased ThermoFisher Scientific PV3182
T1 sequence (P36888 564-993 limits assumed): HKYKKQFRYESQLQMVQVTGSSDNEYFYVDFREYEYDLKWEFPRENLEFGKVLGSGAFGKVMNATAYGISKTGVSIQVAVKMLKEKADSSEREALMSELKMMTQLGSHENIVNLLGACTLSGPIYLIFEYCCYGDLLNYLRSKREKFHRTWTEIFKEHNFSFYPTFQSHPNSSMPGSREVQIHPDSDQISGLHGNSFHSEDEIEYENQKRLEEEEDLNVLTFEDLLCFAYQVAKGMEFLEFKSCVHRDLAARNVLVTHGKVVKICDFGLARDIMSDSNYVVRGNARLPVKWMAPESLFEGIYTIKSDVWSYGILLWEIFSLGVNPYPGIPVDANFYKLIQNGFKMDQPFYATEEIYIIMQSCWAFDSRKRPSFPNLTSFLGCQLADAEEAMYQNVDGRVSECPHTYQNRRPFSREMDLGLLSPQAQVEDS
Protocol: as §2, §3

A2058 = test: Viability screening, human melanoma cell line; type: cell-based; parameters: key: Active: active compound was defined as ≤50% survival at one of the concentrations; Inactive; conditions: screened at 10 and 50 µM, 72 h
Protocol: The flash fractions of P. militaris were assayed for activity against the human melanoma cancer cell line A2058 at 50 µg/mL. […] The flash fractions were also assayed against the human pathogenic bacterial strains Staphylococcus aureus, Enterococcus faecalis, Escherichia coli, Pseudomonas aeruginosa and Streptococcus agalactiae (Gr. B).
as §1

| SMILES | Activity at ≤50 µM (MDA-MB-468) | Activity at ≤50 µM (HT29) | Activity at ≤50 µM (HaCat) | Activity at ≤50 µM (SK-BR-3) | Activity at ≤50 µM (MOLT-4) | Activity at ≤50 µM (THP-1) | Activity at ≤50 µM (HepG2) | Activity at ≤50 µM (MRC5) | Activity at ≤50 µM (MV-4-11) | Activity at ≤50 µM (MOLM-13) | Activity at ≤50 µM (A2058) | other results |
| --- | --- | --- | --- | --- | --- | --- | --- | --- | --- | --- | --- | --- |
| C[C@@H]1[C@H](O)[C@@H](C)/C=C/C=C/C=C/C=C/C=C/C=C/C=C/[C@H](O[C@@H]2O[C@H](C)[C@@H](O)[C@H](N)[C@@H]2O)C[C@@H]2O[C@](O)(C[C@@H](O)C[C@@H](O)[C@H](O)CC[C@@H](O)C[C@@H](O)CC(=O)O[C@H]1C)C[C@H](O)[C@H]2C(=O)O [amphotericin-B] |  |  |  |  |  |  |  |  |  |  |  | MIC (Rhodotrula sp.): 8.7 µM (≈ 8.04 µg/mL); MIC (Aurobasidium pollulans): 8.7 µM (≈ 8.04 µg/mL) |
| COC(=O)[C@@H](CCOc1c(Br)cc(Br)cc1Br)[N+](C)(C)C [compound 1, purpuroine K] | I | I | I | I | I | I | I | I ^2 | Active | Active | I | increase in percentage of apoptotic cells compared to control (MV-4-11 cells [1]): 94%; IC50 (MV-4-11; Homo sapiens, MV4-11, MV-4-11 cell line, read-out: IC50 against MV-4-11): 26 ± 1.2 µM; binding to FLT-ITD mutant active site (FLT3-ITD mutant): does not bind; decrease of cells entering G2/M-phase (MV-4-11 cells [2]; 52 µM): 26%; decrease of cells entering the S-phase (MV-4-11 cells [2]; 52 µM): 23%; increase in the number of cells arrested in G0/G1 phase (MV-4-11 cells [2]; 52 µM): 11%; decrease of cells entering G2/M-phase (MV-4-11 cells [2]; 104 µM): 55%; decrease of cells entering the S-phase (MV-4-11 cells [2]; 104 µM): 38%; increase in the number of cells arrested in G0/G1 phase (MV-4-11 cells [2]; 104 µM): 19%; binding to FLT3 WT active site (FLT3 WT): does not bind |
| COC(=O)[C@@H](CCOc1c(Cl)cc(Br)cc1Br)[N+](C)(C)C [compound 2, purpuroine L] | I | I | I | I | I | I | I | I | I | I | I |  |
| COC(=O)[C@@H](CCOc1c(Cl)cc(Br)cc1Cl)[N+](C)(C)C [compound 3, purpuroine M] | I | I | I | I | I | I | I | I | I | I | I |  |
